# Data: patent US20110104300A1, “Methods for Screening Chemical, Biological, and Physical Agents for Disinfecting Infectious Norovirus” (KIM LABORATORIES, INC., priority 2009, published 2011)
# Columns and labels:
# Norovirus = assay: Suspension testing: Norovirus-positive stool in suspension, test agent, PBST neutralization, IMS bead capture, qRT-PCR; set-up: species or system human; conditions: for antiviral activity against Norovirus (in words): nanosilver at any concentration tested, alcohol up to 70%; for Log Reduction: Suspension
# Human Norovirus = assay: Hard surface testing: Norovirus-positive stool dried on surface, test agent, PBST neutralization, IMS bead capture, qRT-PCR
# Description: For this method, a Norovirus-positive human stool sample was allowed to dry on the surface of a material. A sterilized surface material (e.g., stainless steel, ceramic, porcelain, or fabric, etc.), in this case a round stainless steel plate, was placed into the center of a sterile deep Petri dish. 20 μl of Norovirus-positive human stool sample was added to the center of the stainless steel plate. The stool sample was dried onto the surface of the material for 30 minutes at room temperature.
# 100 μl of a test agent (e.g., a chemical disinfectant) was added on top of the dried stool sample. 100 μl of a neutral buffer, phosphate buffered saline-TWEEN® 20 (polysorbate) (PBST), was used as a negative control (in place of the test agent). 100 μl of 20% household bleach, (10500 ppm sodium hypochlorite, prepared fresh) was used as a positive control (in place of the test agent). The sample and the test agent, neutral buffer, and either 20% household bleach or 10500 ppm sodium hypochlorite were incubated at room temperature for as short as one minute to as long as 60 minutes.
# 40 ml of PBST was added over the surface to fully submerge the surface material and to dislodge the entire dried stool sample. 40 ml PBST acts as a neutralizer for the test compound by dilution. If necessary, the dried stool sample was scraped with the end of a sterile pipette tip. The mixture was shaken for 15 minutes (at ˜150 rpm) in an orbital shaker at room temperature.
# The supernatant is transferred to a 50 ml screw cap centrifuge tube (or similar container). 10-100 μl of Norovirus specific antibody conjugated IMS beads were added, and the resulting mixture was incubated for 1-2 hours with end over rotation (5-10 RPM). The Norovirus specific antibody was monoclonal antibody P2B2 (Kim Laboratories, Inc., Rantoul, Ill.). A tube was placed in a magnetic stand for 15 minutes to capture the IMS beads. The supernatant was removed, with care being taken not to dislodge the IMS beads. […]
compound,measurement,setting,value
"O=C(O)CC(O)(CC(=O)O)C(=O)O [Citric Acid Solution, Citric Acid]",antiviral activity against Norovirus (in words),Norovirus; Suspension testing,ineffective
same,Log Reduction,Norovirus; 0.6%,1.26 log
"CCO [Ethanol solution, Ethanol]",Log Reduction,Norovirus; 70%,1.3 log
OCl [Sodium Hypochlorite],Log Reduction,"Human Norovirus; Hard surface (porcelain tile), 20% of household bleach by Clorox brand",>5 log
same,Norovirus disinfection (in words),"Human Norovirus; Hard surface testing, bleach dilution more than 2-3 weeks old",not effective
same,antiviral activity against Human Norovirus (in words),"Human Norovirus; Hard surface testing, nanosilver at any concentration tested",showed antiviral activity
same,Norovirus disinfection (in words),"Norovirus; Suspension testing, bleach dilution more than 2-3 weeks old, data not shown",not effective
same,antiviral activity against Norovirus (in words),Norovirus; Suspension testing,showed antiviral activity
same,Log Reduction,Norovirus; 20% of household bleach by Clorox brand,>5 log
CCO [alcohol],antiviral activity against Norovirus (in words),Norovirus; Suspension testing,ineffective
OO [hydrogen peroxide],antiviral activity against Norovirus (in words),Norovirus; Suspension testing,ineffective
CC(O)C(=O)O (centres unmarked) [lactic acid],antiviral activity against Norovirus (in words),Norovirus; Suspension testing,ineffective
O=S(=O)([O-])O[O-].[K+].[K+] [potassium peroxymonosulfate],antiviral activity against Norovirus (in words),Norovirus; Suspension testing,ineffective
Povidone Iodine,Log Reduction,Norovirus; 5%,1.1 log
